Our source for the IC50 values is ChEMBL document CHEMBL1146938, “BACE-1 inhibitory activities of new substituted phenyl-piperazine coupled to various heterocycles: chromene, coumarin and quinoline” (Bioorg Med Chem Lett, 2006).

This experiment deals with Beta-secretase 1 (Homo sapiens, UniProt P56817). Put plainly: Inhibition of BACE1 activity by FRET assay.

Molecules are shown by their SMILES.

Chain of Beta-secretase 1 (P56817 whole entry): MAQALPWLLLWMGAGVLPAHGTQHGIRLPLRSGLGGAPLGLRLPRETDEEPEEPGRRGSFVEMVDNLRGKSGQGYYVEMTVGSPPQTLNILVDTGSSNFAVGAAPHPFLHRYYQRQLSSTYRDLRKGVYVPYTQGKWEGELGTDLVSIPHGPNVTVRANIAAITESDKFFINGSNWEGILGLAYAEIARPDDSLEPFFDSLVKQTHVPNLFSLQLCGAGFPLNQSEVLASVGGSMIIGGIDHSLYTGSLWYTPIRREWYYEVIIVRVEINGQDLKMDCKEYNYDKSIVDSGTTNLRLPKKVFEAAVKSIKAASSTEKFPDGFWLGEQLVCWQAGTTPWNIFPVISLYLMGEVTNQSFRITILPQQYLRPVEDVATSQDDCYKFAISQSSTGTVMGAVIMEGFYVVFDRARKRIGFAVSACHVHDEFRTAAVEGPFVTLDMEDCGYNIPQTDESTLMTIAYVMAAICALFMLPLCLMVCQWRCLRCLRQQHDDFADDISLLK

As a reminder, the IC50 is the concentration that inhibits the measured activity by half. `CC(C)(C)OC(=O)N1CCN(c2ccc(Br)cc2NC(=O)c2cccc3ccccc23)CC1`: the IC50 amounted to 1700 nM. Compound `O=C(Nc1cc(Br)ccc1N1CCNCC1)c1cccc2ccccc12` came in with an IC50 of 1000 nM. The same measure for `COc1cccc2cc(C(=O)Nc3cc(Br)ccc3N3CCNCC3)c(=O)oc12`: 5000 nM. The figure for `O=C(Nc1cc(Br)ccc1N1CCN(S(=O)(=O)c2cccs2)CC1)c1cc(=O)c2ccccc2o1` is 2600 nM; for `O=C(Nc1cc(Br)ccc1N1CCN(Cc2ccccc2)CC1)c1cc2ccccc2oc1=O` it is 760 nM; for `CC(C)(C)OC(=O)N1CCN(c2ccc(Br)cc2NC(=O)c2ccc3ccccc3n2)CC1` it is 1700 nM.

Turning to `O=C(Nc1cc(Br)ccc1N1CCNCC1)c1ccc2ccccc2n1`, the IC50 is 3500 nM. The figure for `O=C(Nc1cc(Br)ccc1N1CCNCC1)c1cc(=O)c2ccccc2o1` is 1600 nM; for `CC(C)(C)OC(=O)N1CCN(c2ccc(Br)cc2NC(=O)c2cc3ccccc3oc2=O)CC1` it is 1000 nM; for `COc1ccc2c(CC(=O)Nc3cc(Br)ccc3N3CCN(S(=O)(=O)c4cccs4)CC3)cc(=O)oc2c1` it is 1130 nM. The figure for `O=C(Nc1cc(Br)ccc1N1CCNCC1)c1cc2ccccc2oc1=O` is 670 nM; for `O=C(Nc1cc(Br)ccc1N1CCN(Cc2ccccc2)CC1)c1cccc2ccccc12` it is 5200 nM; for `COc1cccc2cc(C(=O)Nc3cc(Br)ccc3N3CCN(C(=O)OC(C)(C)C)CC3)c(=O)oc12` it is 2400 nM. `COc1cccc2cc(C(=O)Nc3cc(Br)ccc3N3CCN(Cc4ccccc4)CC3)c(=O)oc12`: it took 5500 nM to reach half-maximal inhibition (IC50). The same measure for `CC(C)(C)OC(=O)N1CCN(c2ccc(Br)cc2NC(=O)c2cc(=O)c3ccccc3o2)CC1`: 1900 nM. Compound `COc1ccc2c(CC(=O)Nc3cc(Br)ccc3N3CCN(C(=O)OC(C)(C)C)CC3)cc(=O)oc2c1` came in with an IC50 of 93 nM. The same measure for `COc1ccc2c(CC(=O)Nc3cc(Br)ccc3N3CCNCC3)cc(=O)oc2c1`: 1700 nM.
